# Key:
# Assay type in all cases: in vivo
# Details in all cases: 150 g ai/hl
# [1] = tested on: whitefly Bemisia tabaci adults; assay: Foliar use field trial on tomato, efficacy on whitefly adults
# Protocol: (§1) Two studies were carried out in Elhasanya, Egypt in 2009 on tomato plants of the variety Fayrouz with the main goal to measure efficacy on the whitefly Bemisia tabaci. The plot size was 4.8 m^2 and 6 replicates were used in the trial. Products were applied 3 times on young tomato plants at BBCH stages 14, 17 and 51 at spray intervals between 12 and 19 days. The spray volume was at the first application 350 l/ha and later 500 l/ha. The evaluation of this study was done counting the adult whiteflies (Bemisia tabaci) as well as the nymphs and the eggs in each plot. In addition to the direct whitefly effect, visual symptoms of the virus, mainly TYLCV (tomato yellow leaf curl virus) were evaluated also.
# (§2) ASM=Acibenzolar-S-methyl. WG 50=Actigard® 50WG, a water-dispersible granule with the active ingredient ASM CYNT=Cyantraniliprole. WG 40=Cyazypyr®, a water dispersable granule with the active ingredient CYNT. Results on whitefly adults. Trial 1
# [2] = tested on: TYLCV (tomato yellow leaf curl virus); assay: Foliar use field trial on tomato, infected leaf area by TYLC virus
# Protocol: as §1, §2
# Evaluation of percentage of infected leaf area by TYLC virus (average of 45 plants evaluated per treatment) Trial 1
# [3] = tested on: whitefly Bemisia tabaci nymphs; assay: Foliar use field trial on tomato, efficacy on whitefly nymphs
# Protocol: as §1, §2
smiles,measurement,setting,value
Cc1cc(C)c(C2=C(OC(=O)CC(C)(C)C)C3(CCCC3)OC2=O)c(C)c1 [Spiromesifen],% Efficacy on Adults,"[1]; 5DAA1, Trial 1",61%
same,% Efficacy on Adults,"[1]; 5DAA1, Trial 2",61%
same,% Efficacy on Adults,"[1]; 5DAA2, Trial 1",71%
same,% Efficacy on Adults,"[1]; 5DAA2, Trial 2",71%
same,% Efficacy on Adults,"[1]; 5DAA3, Trial 1",81%
same,% Efficacy on Adults,"[1]; 5DAA3, Trial 2",81%
same,% Efficacy on Adults,"[1]; 10DAA1, Trial 1",43%
same,% Efficacy on Adults,"[1]; 10DAA1, Trial 2",43%
same,% Efficacy on Adults,"[1]; 10DAA2, Trial 1",69%
same,% Efficacy on Adults,"[1]; 10DAA2, Trial 2",69%
same,% Efficacy on Adults,"[1]; 10DAA3, Trial 1",76%
same,% Efficacy on Adults,"[1]; 10DAA3, Trial 2",76%
same,% Efficacy on Adults,"[1]; 15DAA3, Trial 1",67%
same,% Efficacy on Adults,"[1]; 15DAA3, Trial 2",67%
same,% Efficacy on Adults,"[1]; 20DAA3, Trial 1",54%
same,% Efficacy on Adults,"[1]; 20DAA3, Trial 2",54%
same,% Efficacy on Adults Avg % C,"[1]; Avg, Trial 1",65%
same,% Infected Surface area with virus / plant,"[2]; 5DAA2, Trial 1",1.1%
same,% Infected Surface area with virus / plant,"[2]; 5DAA2, Trial 2",1.1%
same,% Infected Surface area with virus / plant,"[2]; 5DAA3, Trial 1",0.8%
same,% Infected Surface area with virus / plant,"[2]; 5DAA3, Trial 2",0.8%
same,% Infected Surface area with virus / plant,"[2]; 10DAA3, Trial 1",7.1%
same,% Infected Surface area with virus / plant,"[2]; 10DAA3, Trial 2",7.1%
same,% Infected Surface area with virus / plant,"[2]; 15DAA3, Trial 1",8.8%
same,% Infected Surface area with virus / plant,"[2]; 15DAA3, Trial 2",8.8%
same,% Infected Surface area with virus / plant,"[2]; 20DAA3, Trial 1",11.1%
same,% Infected Surface area with virus / plant,"[2]; 20DAA3, Trial 2",11.1%
same,% Infected Surface area with virus / plant,"[2]; 24DAA3, Trial 1",11.5%
same,% Infected Surface area with virus / plant,"[2]; 24DAA3, Trial 2",11.5%
same,% Efficacy on Nymphs,"[3]; 5DAA2, Trial 1",86%
same,% Efficacy on Nymphs,"[3]; 5DAA2, Trial 2",86%
same,% Efficacy on Nymphs,"[3]; 5DAA3, Trial 1",88%
same,% Efficacy on Nymphs,"[3]; 5DAA3, Trial 2",88%
same,% Efficacy on Nymphs,"[3]; 10DAA2, Trial 1",85%
same,% Efficacy on Nymphs,"[3]; 10DAA2, Trial 2",85%
same,% Efficacy on Nymphs,"[3]; 10DAA3, Trial 1",84%
same,% Efficacy on Nymphs,"[3]; 10DAA3, Trial 2",84%
same,% Efficacy on Nymphs,"[3]; 15DAA3, Trial 1",81%
same,% Efficacy on Nymphs,"[3]; 15DAA3, Trial 2",81%
same,% Efficacy on Nymphs,"[3]; 20DAA3, Trial 1",76%
same,% Efficacy on Nymphs,"[3]; 20DAA3, Trial 2",76%
same,% Efficacy on Nymphs Avg % C,"[3]; Avg, Trial 1",83%
